Values of other authors, collected in patent US20200085783A1 (priority 2013, published 2020).

Experiments:
NaK pump = NaK pump (Rattus norvegicus, UniProt P06685)
[1] = read-out: in vitro IC50 growth inhibitory effects

| SMILES | decrease in sensitivity of rodent compared to human cells (NaK pump) | IC50 [1] |
| --- | --- | --- |
| C[C@@H]1C[C@@]2(NC(=O)CS2)[C@]2(O)O[C@@H]3C[C@@]4(CO)[C@@H](CC[C@@H]5[C@@H]4CC[C@]4(C)[C@@H](C6=CC(=O)OC6)CC[C@]54O)C[C@H]3O[C@@H]2O1 [UNBS1450] | 100-1000 times |  |
| C[C@@H]1O[C@@H](O[C@H]2C[C@@H](O)[C@]3(CO)[C@H]4[C@H](O)C[C@]5(C)[C@@H](C6=CC(=O)OC6)CC[C@]5(O)[C@@H]4CC[C@]3(O)C2)[C@H](O)[C@H](O)[C@H]1O [ouabain] |  | 0.01 to 0.1 µM |
